The structures appear in SMILES notation.

The subject of data set [1] is human breast cancer (MCF-7) cell line. In words: MTT cytotoxicity assay on MCF-7. It counts as cell-based. The conditions noted are these: MCF7, 24 h incubation, mean and standard error of three tests. As for the experimental part:
(§1) Afterward, the determination of the tested sample concentrations that were sufficient to kill 50 percent of the cell population (IC50) was done by using the cytotoxicity results in plotting a dose-response curve.
(§2) In addition, cytotoxic activities were reported as the average IC50 from three separate tests.
The cytotoxicity of the investigated substances was assessed and determined by MTT assay, and the detailed cytotoxicity assay is included in the Supplementary File S1 [57, 58].
1H-NMR spectra of compound 12c-1
(§3) The tested human breast cancer (MCF -7) cell lines and normal cell line LLC - Mk2 were obtained from the American Type Culture Collection (ATCC, Rockville, MD). The cells were grown on RPMI -1640 medium supplemented with 10% inactivated fetal calf serum and 50µg/mL gentamycin (Lonza, Belgium). The cells were maintained at 37 °C in a humidified atmosphere with 5% CO 2 and were subcultured two to three times a week during the period of experiment .
(§4) For antitumor assays, the tumor cell lines were suspended in medium at cell density of 5x10^4 cells/well in Corning® 96-well tissue culture plates and then incubated for 24 hours. The tested compounds were then added into 96-well plates (six replicates) to achieve eight concentrations for each compound. Six vehicle controls with media or 0.5 % DMSO were run for each 96 well plate as a control. After incubating for 24 h, the numbers of viable cells were determined by the MTT assay. Briefly, the media was removed from the 96-well plate and replaced with 100 µl of fresh culture RPMI 1640 medium without phenol red then 10
(§5) (1 picture or pasted object on this page, not shown here) […]
(§6) µL of the 12 mM MTT stock solution {5 mg of 3-(4,5-dimethylthiazol-2-yl)-2,5-diphenyltetrazolium bromide purchased from Sigma-Aldrich (St. Louis, MO) in 1 mL of Phosphate buffered saline} to each well including the untreated controls. The 96 well plates were then incubated at 37°C and 5% CO 2 for 4 hours.
(§7) An 85 µl aliquot of the media was removed from the wells, and 50 µL of DMSO was added to each well and mixed thoroughly with the pipette and incubated at 37 °C for 10 min. Then, the optical density was measured at 590 nm with the microplate reader (SunRise, TECAN, Inc, USA) to dete rmine the number of viable cells and the percentage of viability was calculated as [(ODt/ODc)]x100% where ODt is the mean optical density of wells treated with the tested sample and ODc is the mean optical density of untreated cells. The relation between surviving cells and drug concentration is plotted to get the survival curve of each tumor cell line after treatment with the specified compound. The 50% inhibitory concentration (IC 50), the concentration required to cause toxic effects in 50% of intact cells, was estimated from graphic plots of the dose response curve for each conc. using GraphPad Prism software (San Diego, CA. USA)[ 2].
1. Mosmann, T. Rapid colorimetric assay for cellular growth and survival: application to proliferation and cytotoxicity assays. J. Immunol. Methods 1983, 65, 55-63.
(In general: Tetrazolium dyes change colour on reduction, which living cells bring about.)

Data set [2] is described as follows: MTT cytotoxicity assay on normal cell line LLC-Mk2. The data set is classed as cell-based. The conditions noted are these: rhesus monkey, LLC-Mk2 kidney epithelial normal cells, mean and standard error. As for the experimental part: as §1, §2
The cytotoxicity of the investigated substances was assessed and determined by MTT assay, and the detailed cytotoxicity assay is included in the Supplementary File S1 [57, 58]. […]
as §3, §4, §5, §6
as §7, with “2]. […]” for “2].”

Data set [3] deals with VEGFR-2. Further details: method as in PMID 28942113, PMID 21078410, PMID 26916914, PMID 27367493, PMID 35807236. Particulars: in Figure 2; cited from earlier work.

For `CC(=NNC(N)=S)c1cc2cc(N=Nc3ccccc3)ccc2oc1=O` [Compound 3, 2-(1-(2-oxo-6-(phenyldiazenyl)-2H-chromen-3-yl)ethylidene)hydrazine-1-carbothioamide], the melting point is 177 to 179 °C.

On to `C/C(=N\Nc1nc(C)c(/N=N/c2ccccc2)s1)c1cc2cc(/N=N/c3ccccc3)ccc2oc1=O` [Compound 6a], for which the melting point lay in the range of 201 to 203 °C.

For `CC(=NNc1nc(C)c(N=Nc2ccc(C)cc2)s1)c1cc2cc(N=Nc3ccccc3)ccc2oc1=O` [Compound 6b], the half-inhibitory concentration (IC50) in data set [1] turned out to be 11.2 ± 0.8 µM. Further, the CC50 at 24 h in data set [2] turned out to be 152 ± 9.3 µM.

In turn, `COc1ccc(/N=N/c2sc(N/N=C(\C)c3cc4cc(/N=N/c5ccccc5)ccc4oc3=O)nc2C)cc1` [Compound 6c] returned a melting point of 179 to 181 °C. Moreover, the IC50 in data set [1] is 14.1 ± 0.63 µM. This compound yielded a half-maximal cytotoxic concentration (CC50) at 24 h in data set [2] of 141 ± 5.15 µM.

For `CC(=NNc1nc(C)c(N=Nc2ccc(Cl)cc2)s1)c1cc2cc(N=Nc3ccccc3)ccc2oc1=O` [Compound 6d], the IC50 in data set [1] was 10.5 ± 0.71 µM. The compound further had a CC50 at 24 h in data set [2] of 132 ± 8.26 µM.

Compound `CC(=NNc1nc(C)c(N=Nc2ccc(Cl)cc2Cl)s1)c1cc2cc(N=Nc3ccccc3)ccc2oc1=O` [Compound 6e] had a melting point of 216 to 218 °C.

On to `CC(=NNC1=NC(=O)C(=NNc2ccc(C)cc2)S1)c1cc2cc(N=Nc3ccccc3)ccc2oc1=O` [Compound 10a], for which inhibition in data set [1] was half-maximal at 28.6 ± 0.64 µM (IC50). Besides, in data set [2], it took 140 ± 10.3 µM to reach half-maximal cytotoxicity (CC50 at 24 h).

The compound `CC(=NNC1=NC(=O)C(=NNc2ccc(Cl)cc2)S1)c1cc2cc(N=Nc3ccccc3)ccc2oc1=O` [Compound 10b] yielded a melting point of 190 to 192 °C.

Turning to `CC(=NNC1=NC(=O)C(=NNc2ccc([N+](=O)[O-])cc2)S1)c1cc2cc(N=Nc3ccccc3)ccc2oc1=O` [Compound 10c], the IC50 in data set [1] was 15.7 ± 0.67 µM. For the same compound, the half-maximal cytotoxic concentration (CC50) at 24 h in data set [2] came to 163 ± 9.12 µM.

In turn, `CC(=NNc1nc(-c2ccccc2)cs1)c1cc2cc(N=Nc3ccccc3)ccc2oc1=O` [Compound 12a] yielded a melting point of 217 to 219 °C.

Take `COc1ccc(-c2csc(NN=C(C)c3cc4cc(N=Nc5ccccc5)ccc4oc3=O)n2)cc1` [Compound 12b]: the melting point was 205 to 207 °C.

`C/C(=N\Nc1nc(-c2ccc([N+](=O)[O-])cc2)cs1)c1cc2cc(/N=N/c3ccccc3)ccc2oc1=O` [Compound 12c]: the melting point is 231 to 233 °C.

Turning to `C/C(=N\c1ccc(F)cc1)c1c(O)c2ccccc2oc1=O` [III], in data set [3], the VEGFR-2 inhibition is on record as 94%.

Turning to `CO/C=N\C1=C(C#N)C(c2ccc(F)cc2)c2c(c3ccccc3oc2=O)C1` (stereo not drawn) [IV], the VEGFR-2 inhibition in data set [3] is reported as 94%.

With `CNC(=O)c1cc(Oc2ccc(NC(=O)Nc3ccc(Cl)c(C(F)(F)F)c3)cc2)ccn1` [Sorafenib, reference compound], in data set [1], inhibition was half-maximal at 5.1 ± 0.49 µM (IC50). Further, the CC50 at 24 h in data set [2] stood at 135 ± 4.08 µM.

As to `O=c1oc2cc(O)ccc2c(Nc2ccc(OCCN3CCCCC3)cc2)c1-c1ccc(F)cc1` [X = NH], the VEGFR-2 inhibition in data set [3] is given as 88.42%.

Regarding `O=c1oc2cc(O)ccc2c(Oc2ccc(OCCN3CCCCC3)cc2)c1-c1ccc(F)cc1` [X = O], in data set [3], the VEGFR-2 inhibition is listed as 82.92%.

By melting point is commonly meant the temperature of the solid-liquid transition. As a reminder, the IC50 is the point on the concentration scale where inhibition reaches its midpoint. High values mean weaker potency in that assay, low ones greater potency in that assay. For orientation: CC50 means the concentration at which the toxic effect on the cells reaches its halfway point.

These data come from PMC9861390, “Synthesis and Molecular Docking of Some Novel 3-Thiazolyl-Coumarins as Inhibitors of VEGFR-2 Kinase” (Molecules, 2023).
